Data as given in patent US8952204B2, “Sulfonium salt, method for producing the same, and photoacid generator” (DSP Gokyo Food & Chemical Co., Ltd., priority 2012, dated 2015).

How the values were obtained:
[1] = Solubility in PGMEA (amount of PGMEA necessary for dissolving 100 mg test compound); assay type: physicochemical; conditions: 20±5° C., after 30 minutes, 16 mL or less evaluated as desirable
Experimental: To the sulfonium salt compound to be measured (test compound; 100 mg each) was added PGMEA, and a strong shaking for 30 seconds was repeated at 20±5° C. every 5 minutes. In this way, the amount of PGMEA necessary for dissolving the test compound after 30 minutes was measured. Here, “dissolving” means to reach the state where no insoluble matter can be observed by visual inspection, specifically, means that the resultant solution is clear, or a mixture in an arbitrary ratio becomes transparent.
In Table 1 below, the compounds that require PGMEA in an amount of 16 mL or less were evaluated as having desirable properties as a current target compound.

[2] = Measurement of ultraviolet-visible absorption spectrum (molecular extinction coefficient at 365 nm); assay type: physicochemical; conditions: 1×10^−4 mol/L acetonitrile solution; 50 to 2000 evaluated as desirable
Experimental: (Measurement of Ultraviolet-Visible Absorption Spectrum)
A 1×10^−4 mol/L acetonitrile solution of each test compound was prepared, and the molecular extinction coefficient at 365 nm in the ultraviolet-visible absorption spectrum was measured using an ultraviolet-visible spectrophotometer (UV-2400PC, manufactured by SHIMADZU CORPORATION). […] Considering that light should be transmitted to a deep portion in a thick film, compounds with a molecular extinction coefficient at 365 nm (i-line) of 50 to 2000 were evaluated as a compound having desirable properties.

| SMILES | PGMEA (mL): amount of PGMEA necessary for dissolving test compound [1] [mL] | Molecular Extinction Coefficient (365 nm) [2] |
| --- | --- | --- |
| CC1(C)[C@@H]2CC[C@@]1(CS(=O)(=O)[O-])C(=O)C2.CCCCOc1ccc2ccc(OCCCC)c([S+](CCCC)CCCC)c2c1 [Example Compound 1, 1-(2,7-di-n-butoxynaphthyl)di-n-butyl sulfonium (1S,4R)-7,7-dimethyl-2-oxobicyclo[2.2.1]heptane-1-yl methanesulfonate] | 11 | 640 |
| CC1(C)[C@@H]2CC[C@@]1(CS(=O)(=O)[O-])C(=O)C2.c1ccc([S+](c2ccccc2)c2ccccc2)cc1 [Comparative Example Compound 1, triphenylsulfonium (1S,4R)-7,7-dimethyl-2-oxobicyclo[2.2.1]heptane-1-yl methanesulfonate] | >160 | 0 |
